Measurements taken from paper PMC8490629, “Metabolites of Procyanidins From Litchi Chinensis Pericarp With Xanthine Oxidase Inhibitory Effect and Antioxidant Activity” (Frontiers in Nutrition, 2021).
Like-named read-outs stand apart in the source and are kept apart here. Marks after values point to notes of the source that are not given here.

Assays:
[1] = Urinary excretion of procyanidins and metabolites in rats after oral LPPC (HPLC / LC-MS); assay type: in vivo, rat; conditions: for Urinary excretion, phenolic acids / Urinary excretion, procyanidin (% to oral dose): rat urine 0-24 h after oral LPPC 300 mg/kg, after glucuronidase/sulfatase deconjugation; for Urinary excretion as share of the oral intake: rat urine, oral LPPC 300 mg/kg bw
Experimental: Male Sprague-Dawley rats weighing 220 ± 20 g were randomly divided into two groups (n = 20) with 10 rats in each group. Prior to administration, animals were deprived of food for 12 h, but had access to deionized water. The LPPC was dissolved in physiological saline and administered orally to rats at a dose of 300 mg/kg body weight. In addition, the physiological saline was administered orally to the rats in another group as control. All the rats were placed in metabolic cages, each rat per cage (Jiayuan Technology Co. Ltd., Beijing, China). The samples of urine excreted from 0 to 24 h postadministration were collected from the bottom of the metabolic cage under chilled conditions using an ice bath and stored at −80°C before analysis, referring to the method described previously ([38]).
The sample of urine was centrifuged at 4,000 r/min for 10 min at 4°C, and the supernatant was collected. The supernatant was acidified to pH = 5.5 with 0.6 mol/l acetic acid and incubated at 37°C for 60 min in the presence of 10 KU β-glucuronidase with the activity of sulfatase. After further acidification to pH = 2 with 6 mol/l HCl, the samples were directly extracted by ethyl acetate × 3. The resulting supernatant was dried under vacuum by rotatory evaporation at 40°C until the ethyl acetate was completely removed and dissolved in 1 ml of 50% methanol. Then, the solution was purified by the solid phase extraction, and the residue was redissolved in methanol and analyzed by LC-MS as described by Li et al. with modifications ([39]).
Selected samples were analyzed on an Agilent 1100 LC-ESI-MS system (Agilent Technologies Co. Ltd., Foster City, California, USA) to identify metabolites in urine. A VP-ODS column (150 × 4.6 mm ID, 5 μm particle size, Shimadzu Co., Kyoto, Japan) was used and 20 μl solution of the sample was injected. The mobile phases consisted of 0.4% (v/v) aqueous acetic acid as A and acetonitrile as B with the following linear gradient: from 5 to 35% B in the first 40 min, from 35 to 50% B in the next 5 min, from 50 to 80% B in the next 5 min, and from 80 to 5% B in the next 5 min, and re-equilibrated with 5% B for 5 min before next injection. The flow rate was 0.2 ml/min and the absorbance of the eluate was monitored at 280 nm. Mass spectra were collected using an electrospray ionization (ESI) ion source in the negative mode under the following conditions: orifice voltage, −30 V; nebulizing pressure, 30 psi; heat capillary temperature, 275°C; and mass range, m/z 100-1,200.

xanthine oxidase = molecular target: T1, xanthine oxidase (Bos taurus, UniProt P80457); test: Xanthine oxidase inhibition assay (uric acid production from xanthine, 295 nm); assay type: biochemical; conditions: for IC50: read-out: IC50 (μg/ml) xanthine oxidase (converted); for inhibition at 200 µg/mL: read-out: Inhibition (%) at 200 μg/ml
T1 construct: purchased Sigma (St. Louis, MO, USA)

[2] = DPPH radical scavenging activity
Experimental: 1, 1-Diphenyl-2-picrylhydrazyl radical scavenging activity was determined referring to the method described previously ([41]). Litchi pericarp and phenolic acids were dissolved in 1.0 ml of deionized water at various concentrations ranging from 2.0 to 100.0 μg/ml. Then, the solution of the sample was mixed with 1.0 ml of freshly prepared 0.2 mM DPPH ethanolic solution. Control in the experiment was prepared by the same reagent without the sample. All the tubes were incubated at 37°C for 30 min in the dark, and the final solution was recorded at 517 nm. The DPPH radical scavenging activity was calculated using the following equation:
DPPH radical scavenging rate (%) =(Acontrol-Asample)/Acontrol × 100

[3] = Hydroxyl radical scavenging activity
Experimental: Hydroxyl radical scavenging activity was assessed according to the method of Dong et al. ([42]) with modifications. The reagents and samples were added strictly obeying following order: 0.25 ml 1.5 mM phenanthroline ethanolic solution, 0.5 ml phosphoric acid buffer (pH = 7.4), 0.25 ml 1.5 mM freshly prepared ferrous sulfate solution, 0.5 ml sample (0–0.5 mg), and 0.25 ml 0.01% H2O2. The injured tubes in the experiment were prepared by the same reagents except samples, while control was carried out by adding sample without H2O2. The mixtures were shaken and incubated at 37°C for 1 h, and then measured at 536 nm. The hydroxyl radical scavenging activity was calculated using the following equation:
hydroxyl radical scavenging rate (%) =Asample-Ainjured/Acontrol-Ainjured ×100

T1 sequence (P80457 2-1332 limits assumed): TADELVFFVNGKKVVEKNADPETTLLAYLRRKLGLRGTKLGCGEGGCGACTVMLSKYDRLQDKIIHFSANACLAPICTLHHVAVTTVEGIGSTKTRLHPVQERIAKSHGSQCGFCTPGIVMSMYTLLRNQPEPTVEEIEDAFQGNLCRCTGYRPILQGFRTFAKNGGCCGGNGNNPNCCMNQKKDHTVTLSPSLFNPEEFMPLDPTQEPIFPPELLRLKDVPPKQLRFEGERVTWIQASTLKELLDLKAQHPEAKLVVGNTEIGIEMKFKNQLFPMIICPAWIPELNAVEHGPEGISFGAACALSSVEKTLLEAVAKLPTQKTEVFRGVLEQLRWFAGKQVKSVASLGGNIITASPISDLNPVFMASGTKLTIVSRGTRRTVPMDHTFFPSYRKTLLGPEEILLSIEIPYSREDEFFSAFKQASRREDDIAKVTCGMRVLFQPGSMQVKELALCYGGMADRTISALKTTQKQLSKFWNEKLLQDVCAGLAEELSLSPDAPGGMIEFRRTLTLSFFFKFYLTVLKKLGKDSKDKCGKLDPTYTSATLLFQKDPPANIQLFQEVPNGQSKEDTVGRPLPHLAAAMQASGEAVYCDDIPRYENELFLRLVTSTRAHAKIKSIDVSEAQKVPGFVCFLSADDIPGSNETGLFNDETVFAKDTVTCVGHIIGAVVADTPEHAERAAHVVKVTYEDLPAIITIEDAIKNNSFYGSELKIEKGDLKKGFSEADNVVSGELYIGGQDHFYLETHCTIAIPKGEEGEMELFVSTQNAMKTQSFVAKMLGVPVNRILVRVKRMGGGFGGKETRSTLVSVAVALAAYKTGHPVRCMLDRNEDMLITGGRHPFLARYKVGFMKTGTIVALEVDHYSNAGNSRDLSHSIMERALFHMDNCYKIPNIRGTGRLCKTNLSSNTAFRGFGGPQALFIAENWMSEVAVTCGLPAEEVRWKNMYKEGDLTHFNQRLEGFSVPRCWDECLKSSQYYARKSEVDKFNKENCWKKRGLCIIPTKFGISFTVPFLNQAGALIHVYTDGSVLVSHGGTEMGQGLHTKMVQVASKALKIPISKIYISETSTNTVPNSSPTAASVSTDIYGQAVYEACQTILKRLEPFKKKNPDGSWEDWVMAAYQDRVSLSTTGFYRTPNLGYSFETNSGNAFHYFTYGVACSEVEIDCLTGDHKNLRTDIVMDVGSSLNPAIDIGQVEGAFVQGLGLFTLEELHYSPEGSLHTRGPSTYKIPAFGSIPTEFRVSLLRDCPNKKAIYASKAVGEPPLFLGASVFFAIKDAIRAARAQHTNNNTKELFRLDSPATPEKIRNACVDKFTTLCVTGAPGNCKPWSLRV

Urinary excretion, phenolic acids [1] [nmol] | IC50 (xanthine oxidase) [µM] | inhibition at 200 µg/mL (xanthine oxidase; xanthine oxidase, 200 μg/ml) [%] | IC50 (μg/ml) DPPH· [2] | IC50 (μg/ml) DPPH· ([2]; listed as 3-hydroxyphenylacetic acid) [µg/mL] | IC50 (μg/ml) ·OH [3] | IC50 (μg/ml) DPPH· ([2]; listed as 3-hydroxyphenylpropionic acid) [µg/mL] | IC50 (μg/ml) DPPH· ([2]; listed as 4-hydroxyphenylpropionic acid) [µg/mL] | Urinary excretion, procyanidin (% to oral dose) [1] | Urinary excretion as share of the oral intake [1] | Inhibition (%) at 200 μg/ml (xanthine oxidase; xanthine oxidase, 200 μg/ml) | Inhibition (%) at 200 μg/ml (xanthine oxidase; xanthine oxidase, 200 μg/ml, listed as epicatechin) | SMILES | inhibition at 200 µg/mL (xanthine oxidase) [%] | IC50 (μg/ml) DPPH· ([2]; listed as vanillic acid) [µg/mL]
– | 119 | – | 5.86 ± 0.14^a μg/ml | – | 126.57 ± 2.58^a μg/ml | – | – | 0.54 ± 0.09 % to oral dose | 0.54 ± 0.09 % (mol/mol) | – | – | Oc1cc(O)c2c(c1)OC1(c3ccc(O)c(O)c3)Oc3cc(O)c4c(c3C2C1O)OC(c1ccc(O)c(O)c1)C(O)C4 (stereo not drawn) [A-type dimer] | – | –
– | 86.6 | > 50 | 8.00 ± 0.18^b μg/ml | – | 122.73 ± 2.35^a μg/ml | – | – | 0.43 ± 0.02 % to oral dose | 0.43 ± 0.02 % (mol/mol) | – | – | Oc1cc(O)c2c(c1)OC1(c3ccc(O)c(O)c3)Oc3cc(O)c4c(c3C2C1O)OC(c1ccc(O)c(O)c1)C(O)C4c1c(O)cc(O)c2c1OC(c1ccc(O)c(O)c1)C(O)C2 (stereo not drawn) [A-type trimer] | – | –
20.67 ± 2.68 | 531 | – | 9.88 ± 0.55^c μg/ml | – | 161.47 ± 3.31^c μg/ml | – | – | – | – | – | – | O=C(O)/C=C/c1ccc(O)c(O)c1 [Caffeic acid, caffeic acid] | – | –
27.22 ± 7.02 | 552 | > 50 | 8.96 ± 0.18b^c μg/ml | – | 186.53 ± 7.56^d μg/ml | – | – | – | – | 61.13 ± 0.81^f % | – | O=C(O)C1=C[C@@H](O)[C@@H](O)[C@H](O)C1 [Shikimic acid, shikimic acid] | – | –
39.01 ± 7.33 | 942 | 52.8 ± 1.57 | 21.93 ± 1.25^e μg/ml | – | 256.43 ± 9.33^f μg/ml | – | – | – | – | – | – | O=C(O)/C=C/c1cccc(O)c1 [m-Coumaric acid, m-coumaric acid] | – | –
13.89 ± 1.65 | 852 | 57.4 ± 0.62 | 16.53 ± 0.65^d μg/ml | – | 220.13 ± 4.57^e μg/ml | – | – | – | – | – | – | O=C(O)/C=C/c1ccc(O)cc1 [p-Coumaric acid, p-coumaric acid] | – | –

Continued, compound first:

SMILES | Urinary excretion, phenolic acids [1] [nmol] | IC50 (xanthine oxidase) [µM] | inhibition at 200 µg/mL (xanthine oxidase; xanthine oxidase, 200 μg/ml) [%] | IC50 (μg/ml) DPPH· [2] | IC50 (μg/ml) DPPH· ([2]; listed as 3-hydroxyphenylacetic acid) [µg/mL] | IC50 (μg/ml) ·OH [3] | IC50 (μg/ml) DPPH· ([2]; listed as 3-hydroxyphenylpropionic acid) [µg/mL] | IC50 (μg/ml) DPPH· ([2]; listed as 4-hydroxyphenylpropionic acid) [µg/mL] | Urinary excretion, procyanidin (% to oral dose) [1] | Urinary excretion as share of the oral intake [1] | Inhibition (%) at 200 μg/ml (xanthine oxidase; xanthine oxidase, 200 μg/ml) | Inhibition (%) at 200 μg/ml (xanthine oxidase; xanthine oxidase, 200 μg/ml, listed as epicatechin) | inhibition at 200 µg/mL (xanthine oxidase) [%] | IC50 (μg/ml) DPPH· ([2]; listed as vanillic acid) [µg/mL]
O=C(O)Cc1cccc(O)c1 [3-Hydroxyphenylacetic acid, 3-hydroxyphenylacetic acid] | 46.98 ± 3.76 | > 1310 | 21.1 ± 1.78 | 82.60 ± 1.95^h μg/ml | > 50 | 803.47 ± 6.38^g μg/ml | – | – | – | – | – | – | – | –
O=C(O)CCc1cccc(O)c1 [3-Hydroxyphenylpropionic acid, 3-hydroxyphenylpropionic acid] | 12.87 ± 3.06 | > 1200 | 27 ± 1.44 | 77.83 ± 0.93^g μg/ml | – | 841.57 ± 4.45^h μg/ml | > 50 | – | – | – | – | – | – | –
O=C(O)CCc1ccc(O)cc1 [4-Hydroxyphenylpropionic acid, 4-hydroxyphenylpropionic acid] | 60.54 ± 3.18 | > 1200 | 29.4 ± 0.75 | 74.63 ± 1.40^f μg/ml | – | 813.87 ± 5.48^g μg/ml | – | > 50 | – | – | – | – | – | –
Oc1cc(O)c2c(c1)O[C@H](c1ccc(O)c(O)c1)[C@H](O)C2 [(-)-Epicatechin, (-)-epicatechin] | – | 201 | – | 5.43 ± 0.10^a μg/ml | – | 121.27 ± 1.80^a μg/ml | – | – | 0.21 ± 0.04 % to oral dose | 0.21 ± 0.04 % (mol/mol) | 78.63 ± 1.72^b % | higher than 50% | – | –
Oc1ncnc2[nH]ncc12 [Allopurinol, reference compound] | – | – | – | – | – | – | – | – | – | – | – | – | 85.6 ± 3.13 | –
COc1cc(C(=O)O)ccc1O [Vanillic acid, vanillic acid] | 6.62 ± 2.79 | > 1190 | – | 86.06 ± 1.33^i μg/ml | – | 897.33 ± 9.90^i μg/ml | – | – | – | – | – | – | 25 ± 1.47 | > 50
